Among the test systems are PC-3; IGROV-1; 786-0; CCRF-CEM; TK-10; SW-620; DU-145; OVCAR-4; NCI/ADR-RES; SN12C; MDA-MB-435; UACC-257; UO-31; T47D.
Test in all cases: growth of human tumour cells (NCI), 48 h

Experimental findings from ChEMBL document CHEMBL1201862, “PubChem BioAssay data set” (2004) are described below.

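Cells were grown in 96-well plates and exposed to each compound for 48 hours at five concentrations; endpoints were interpolated linearly between bracketing concentrations, or set to the highest concentration if not reached. At the GI50, growth is halved.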 The source made the active and inactive calls. Rule as the data show it: active = GI50 up to about 1.1 µM and inactive = higher.

Regarding `COC(=O)c1c2n(c3ccccc13)C[C@H]1OC(C)(C)O[C@@H]21`, the GI50 in the assay on PC-3, with IGROV-1, in the assay with 786-0, in the assay on CCRF-CEM, with TK-10 and in the assay on SW-620 was > 100 µM (inactive) each time. Moreover, the GI50 in the assay on DU-145, with OVCAR-4, in the assay with NCI/ADR-RES, in the assay on SN12C, in the assay on MDA-MB-435 and in the assay with UACC-257 was > 100 µM (inactive) in each case. Further, the GI50 with UO-31 and with T47D was > 100 µM (inactive) each time.
On to `CC(=O)OCCCCn1cnc2nc(Nc3ccccc3)nc(Cl)c21`, for which the GI50 in the assay with PC-3 is 42.5 µM (inactive); with IGROV-1, > 100 µM (inactive); in the assay on 786-0, > 100 µM (inactive); in the assay with CCRF-CEM, 78.2 µM (inactive); in the assay with TK-10, > 100 µM (inactive); with SW-620, > 100 µM (inactive). The GI50 is 65.3 µM (inactive) in the assay on OVCAR-4; 42.4 µM (inactive) in the assay on NCI/ADR-RES; 90.6 µM (inactive) in the assay with SN12C; 34.4 µM (inactive) in the assay with MDA-MB-435; 58.7 µM (inactive) in the assay with UACC-257; 40.6 µM (inactive) in the assay on UO-31. Also, the GI50 in the assay on T47D is 56.9 µM (inactive).
As to `OCCOCn1nc(-c2ccccc2)nc1-c1cnccn1`, the GI50 in the assay with PC-3, in the assay with IGROV-1, with 786-0, with CCRF-CEM, in the assay on TK-10 and with SW-620 was > 100 µM (inactive) in each case. In addition, the GI50 in the assay on DU-145, with OVCAR-4, with NCI/ADR-RES, in the assay with SN12C, in the assay on UACC-257 and in the assay with UO-31 was > 100 µM (inactive) throughout. Further, in the assay with T47D, the GI50 was > 100 µM (inactive).
For `CCN(CC)Cc1ccc2cccnc2c1O`, the GI50 is 6.05 µM (inactive) in the assay on PC-3; 2.77 µM (inactive) in the assay with IGROV-1; 0.713 µM (active) in the assay on CCRF-CEM; 9.64 µM (inactive) in the assay on TK-10; 3.3 µM (inactive) in the assay with SW-620; 10.8 µM (inactive) with DU-145. For the same molecule, the GI50 in the assay with OVCAR-4 was 16.4 µM (inactive); in the assay on NCI/ADR-RES, 0.358 µM (active); with SN12C it was 4.12 µM (inactive); in the assay on MDA-MB-435, 9.42 µM (inactive); with UACC-257, 4.91 µM (inactive); in the assay on UO-31, 1.88 µM (inactive).
Regarding `CCN1CCC(O)(/C=C/c2ccccc2C)C(C(=O)/C=C/c2ccccc2C)C1` (stereo not given), the GI50 with PC-3 is 1.93 µM (inactive); in the assay with IGROV-1, 3.62 µM (inactive); with CCRF-CEM, 1.85 µM (inactive); with TK-10, 2.94 µM (inactive); with SW-620, 2.74 µM (inactive); with DU-145, 1.79 µM (inactive). Also, the GI50 in the assay with OVCAR-4 was 3.67 µM (inactive); with NCI/ADR-RES, 3.65 µM (inactive); in the assay on SN12C, 2.18 µM (inactive); in the assay with MDA-MB-435, 2.38 µM (inactive); in the assay on UACC-257 it was 2.9 µM (inactive); in the assay on UO-31, 1.63 µM (inactive). For the same molecule, the GI50 in the assay on T47D is 1.85 µM (inactive).
As for `Nc1ccc(C2(c3ccc(N)cc3)C3CC4CC(C3)CC2C4)cc1`, the GI50 with PC-3 was 14.9 µM (inactive); in the assay on IGROV-1, 9.59 µM (inactive); in the assay on CCRF-CEM it was 3.76 µM (inactive); in the assay with TK-10 it was 18 µM (inactive); in the assay with SW-620 it was 11.4 µM (inactive); with OVCAR-4 it was 14.3 µM (inactive). Besides, the GI50 in the assay on NCI/ADR-RES is 0.0792 µM (active); with SN12C, 18.5 µM (inactive); in the assay with MDA-MB-435 it was 14.7 µM (inactive); in the assay with UACC-257, 19.2 µM (inactive); in the assay with UO-31, 18.2 µM (inactive); in the assay with T47D, 14.5 µM (inactive).
Regarding `COc1ccc(/C=C/c2cnccn2)cc1OC`, the GI50 in the assay with PC-3, with IGROV-1, in the assay with 786-0, in the assay with TK-10, in the assay with SW-620 and in the assay with DU-145 was > 10 µM (inactive) in each case. The GI50 with OVCAR-4, with NCI/ADR-RES, in the assay with SN12C, with MDA-MB-435, with UACC-257 and with UO-31 was > 10 µM (inactive) in each case. The GI50 in the assay with T47D is > 10 µM (inactive).
Take `CCN(CC)CCN(C(=O)c1ccc(F)cc1)c1ccccc1N`: the GI50 in the assay on PC-3, in the assay on IGROV-1, in the assay on CCRF-CEM, with TK-10, in the assay on SW-620 and in the assay on DU-145 was > 10 µM (inactive) in each case. Besides, the GI50 in the assay on OVCAR-4, with NCI/ADR-RES, with SN12C, in the assay with MDA-MB-435, in the assay with UO-31 and with T47D was > 10 µM (inactive) each time.
With `COc1cc(C2c3cc4c(cc3OC(N3CCCCC3)C2C)OCO4)cc(OC)c1OC` (stereo not given), the GI50 with PC-3 is 3.5 µM (inactive); in the assay with IGROV-1, 4.62 µM (inactive); in the assay on 786-0, 3.42 µM (inactive); in the assay on CCRF-CEM, 2.84 µM (inactive); in the assay on TK-10 it was 7.71 µM (inactive); with SW-620, 3.2 µM (inactive). Further, the GI50 is 3.49 µM (inactive) with DU-145; 13 µM (inactive) in the assay on OVCAR-4; 3.17 µM (inactive) in the assay on NCI/ADR-RES; 6.07 µM (inactive) in the assay with SN12C; 0.67 µM (active) in the assay on MDA-MB-435; 12.3 µM (inactive) in the assay on UACC-257. In addition, the GI50 in the assay on UO-31 is 5.02 µM (inactive); in the assay on T47D, 4.23 µM (inactive).
As to `CCC1C(c2ccccc2O)c2cc3c(cc2OC1N1CCOCC1)OCO3` (stereo not given), the GI50 is 12.5 µM (inactive) with PC-3; 15.8 µM (inactive) with IGROV-1; 21.1 µM (inactive) in the assay with 786-0; 13.9 µM (inactive) in the assay on CCRF-CEM; 13.9 µM (inactive) in the assay with TK-10; 15.9 µM (inactive) with SW-620. Moreover, the GI50 is 14.8 µM (inactive) in the assay with DU-145; 15.7 µM (inactive) with SN12C; 15.6 µM (inactive) with MDA-MB-435; 16 µM (inactive) with UACC-257; 13.9 µM (inactive) in the assay on UO-31; 13.2 µM (inactive) with T47D.
For the molecule `CCOC(=O)c1c2ccccc2n2c(=O)n(-c3ccccc3)nnc12`, the GI50 in the assay with PC-3 is > 90.6 µM (inactive); in the assay on IGROV-1, 79.3 µM (inactive); with 786-0, 62.4 µM (inactive); in the assay with CCRF-CEM, 1.4 µM (inactive); in the assay with TK-10, > 100 µM (inactive); in the assay with SW-620 it was > 100 µM (inactive). Moreover, the GI50 with DU-145 was > 100 µM (inactive); with OVCAR-4 it was > 71.8 µM (inactive); in the assay with NCI/ADR-RES it was > 58.3 µM (inactive); in the assay on SN12C, > 100 µM (inactive); in the assay with MDA-MB-435, 18.7 µM (inactive); in the assay on UACC-257, > 33.3 µM (inactive). For the same molecule, the GI50 in the assay with UO-31 is 74.8 µM (inactive); with T47D it was 9.08 µM (inactive).
As to `CC(C)=CCc1c(OC(=O)c2c(C)cc(O)cc2O)cc(CO)c(CO)c1O`, the GI50 in the assay on PC-3 is 18 µM (inactive); with IGROV-1, 19.2 µM (inactive); in the assay on 786-0, 31.4 µM (inactive); with CCRF-CEM, > 10 µM (inactive); in the assay on TK-10 it was 26.3 µM (inactive); in the assay with SW-620, > 10 µM (inactive). The GI50 was 25.1 µM (inactive) in the assay on DU-145; 16 µM (inactive) with OVCAR-4; 30.1 µM (inactive) in the assay with NCI/ADR-RES; 18.5 µM (inactive) with SN12C; 17.7 µM (inactive) in the assay with MDA-MB-435; 29.9 µM (inactive) with UACC-257. Also, the GI50 with UO-31 is 12.2 µM (inactive); with T47D, 6.85 µM (inactive).
Consider `CC(C)(C)[Si](C)(C)OC1CCOC1(O)c1ccccn1` (stereo not given), for which the GI50 in the assay with PC-3 was > 100 µM (inactive); in the assay on IGROV-1, > 100 µM (inactive); with 786-0, > 100 µM (inactive); with CCRF-CEM it was 88.3 µM (inactive); in the assay on TK-10 it was > 100 µM (inactive); in the assay on SW-620 it was > 100 µM (inactive). For the same molecule, the GI50 in the assay with DU-145, with OVCAR-4, with NCI/ADR-RES, in the assay on SN12C, in the assay on MDA-MB-435 and with UACC-257 was > 100 µM (inactive) each time. The GI50 in the assay with UO-31 and in the assay on T47D was > 100 µM (inactive) in each case.
As for `Nc1ncnc2c1ncn2C=C=CCO`, the GI50 in the assay on PC-3, in the assay on CCRF-CEM, in the assay with TK-10, in the assay with SW-620, in the assay with DU-145 and with OVCAR-4 was > 100 µM (inactive) throughout. Further, the GI50 in the assay with NCI/ADR-RES, in the assay on SN12C, in the assay on MDA-MB-435, with UACC-257, with UO-31 and in the assay on T47D was > 100 µM (inactive) each time.
Take `Oc1cc(-c2ccccc2)nc2c(S)cccc12`: the GI50 is 47.3 µM (inactive) in the assay with PC-3; > 100 µM (inactive) in the assay with IGROV-1; > 100 µM (inactive) in the assay with 786-0; > 100 µM (inactive) in the assay with CCRF-CEM; > 100 µM (inactive) in the assay on TK-10; > 100 µM (inactive) with SW-620. Moreover, the GI50 in the assay on DU-145, with OVCAR-4, in the assay with NCI/ADR-RES, in the assay with SN12C, with MDA-MB-435 and in the assay with UACC-257 was > 100 µM (inactive) throughout. The GI50 in the assay on T47D is 29 µM (inactive).
